# According to patent US20080057529A1, “Method for Identifying Histone Deacetylase Inhibitors” (priority 2003, published 2008):
# Assays:
# Format in all cases: cell-based, human
# CMV promoter = test: Transient transfection of HeLa cells with CMV-BLA (pCMV-BLA) reporter plasmid, Bla staining (blue cells)
# Experimental: (§1) The p21m-BLA reporter plasmid was tested in transient transfection experiments of HeLa cells to evaluate the responsiveness of the minimal p21 promoter and the Bla reporter system to known HDAC inhibitors. In the first two transfection experiments, HeLa cells were transfected with 1 or 2 μg of Bla reporter plasmid containing either p21 minimal promoter (p21m-BLA) or CMV promoter (CMV-BLA) and 0.1 μg of pCMV-Luc or pRSV-Luc control plasmids. Different DNA-FUGENE transfection reagent ratios were tested (FUGENE is available from Roche Applied Science, Indianapolis, Ind.). […] Data are summarized below in Tables 1 and 2.
# (§2) The percentage of β-lactamase-positive cells increased with time independent of the presence of HDAC inhibitors and was constantly higher with p21m-BLA than with pCMV-BLA.
# (§3) In light of the above, the lack of apparent Bla activation in the above transfection experiments might have been due to the high sensitivity of the method. Therefore, transient transfections in which an accurate titration of the reporter plasmid DNA were performed. The titration of the reporter plasmid included using amounts lower than was used above. […] The transient transfections were repeated and the result confirmed (Table 7).
# p21 minimal promoter [1] = test: Fluorometric β-lactamase activity assay in stable HeLa clone 1.17 (p21m-BLA)
# Experimental: All clones were screened for the presence of stably and functional integrated copies of the p21m-BLA reporter gene transcription cassette by performing a fluorometric β-lactamase activity assay after treatment with the HDAC inhibitor Apicidin at a concentration of 1 μM (saturating dose representing 100% of Bla gene activation, i.e., 100% of HDAC inhibition). A 100 μL aliquot of cells for each stable transformant in complete DMEM was plated into a well of a 96 well plate at about 36,000 cells per well for treatment with 1 μM Apicidin (saturating dose) and a 100 μL aliquot of cells was plated into a well of a 96 well plate at 24,000 cells per well for treatment with DMSO (vehicle control). […] After 4 hours, 25 μL of complete DMEM containing Apicidin at 5× final concentration or DMSO (5%) was added to each of the wells. The cells were then grown at 37° C., 5% CO2 for about 12 to 16 hours. Afterwards, the medium was removed and 100 μL of DMEM without serum and 25 μL of FRET labeled CCF2-AM Bla substrate diluted in the appropriate buffer according to the manufacturer recommendations were each added to the cells to give a final concentration of 1 μM CCF2-AM.
# [2] = system: HDAC activity (acetylated histone H3); test: Acetylation of core histones (inhibition of HDAC activity) in HeLa cells, acetylated histone H3 immunoblot; details: HeLa cells, 13 hour treatment, immunoblot densitometry; read-out: AcH3 EC50
# Experimental: Induction of endogenous p21 and acetylation of core histones (inhibition of HDAC activity) was as follows. Dose-response experiments were performed in HeLa cells with different classes of known HDAC inhibitors. […] An α-tubulin-specific antibody (Sigma, St. Louis, Mo.; catalog number: T9026) was used as an internal standard. Quantitative data were obtained by densitometric analysis of X-ray films and were normalized for the internal standard values.
# p21 minimal promoter [3] = test: Transient transfection of HeLa cells with p21m-BLA reporter plasmid, Bla staining (blue cells)
# Experimental: as §1, §2, §3
# HeLa cells = test: Cell death in transiently transfected HeLa cells
# Experimental: as §1, §2
# p21 minimal promoter [4] = test: Transient transfection of HeLa cells with p21m-SEAP reporter plasmid, SEAP activity; details: Apicidin 1 μM, TSA 300 nM; for SEAP (10 min) / SEAP norm-bckg/RLU norm: Table 5
# Experimental: To determine whether the p21 minimal promoter was responsive to HDAC inhibitors, a reporter plasmid containing the secreted alkaline phosphatase gene (SEAP) operably linked to the p21 minimal promoter (−182 through +25), pcDNA3-21m-SEAP, was tested in transient transfection experiments of HeLa cells. […] All data summarized in Tables 4 through 7 were obtained by normalizing the total amount of transfected DNA to 2.1 μg using a promoterless plasmid.
smiles,measurement,setting,value
"CC(/C=C/C(=O)NO)=C\[C@@H](C)C(=O)c1ccc(N(C)C)cc1 [TSA, Trichostatin A]",% Blue cells,"CMV promoter; Table 1, 400 nM, 12 hours induction, 1 μg CMV-BLA + 3 μL F",5%
same,% Blue cells,"CMV promoter; Table 1, 400 nM, 12 hours induction, 2 μg CMV-BLA + 6 μL F",15-20%
same,% Blue cells,"CMV promoter; Table 2, 400 nM, 12 hours induction, 1 μg CMV-BLA + 3 μL F",5%
same,% Blue cells,"CMV promoter; Table 2, 400 nM, 12 hours induction, 2 μg CMV-BLA + 6 μL F",5%
same,% Blue cells,"CMV promoter; Table 2, 400 nM, 12 hours, 1 μg CMV-BLA + 3 μL F + CMV-luc",5%
same,% Blue cells,"CMV promoter; Table 2, 400 nM, 12 hours, 1 μg CMV-BLA + 3 μL F + RSV-luc",7%
same,% Blue cells,"CMV promoter; Table 2, 400 nM, 12 hours, 2 μg CMV-BLA + 6 μL F + CMV-luc",7%
same,% Blue cells,"CMV promoter; Table 2, 400 nM, 12 hours, 2 μg CMV-BLA + 6 μL F + RSV-luc",7%
same,% Blue cells,"CMV promoter; Table 3, 2 μg pCMV-BLA + 0.1 μg pCMV-Luc, 12 hr treatment, TSA 300 nM, Apicidin 1 μM",4-5%
same,% Blue cells,"CMV promoter; Table 3, 2 μg pCMV-BLA + 0.1 μg pCMV-Luc, 24 hr treatment, TSA 300 nM, Apicidin 1 μM",15%
same,reversion of Bla induction after FACS sorting,"p21 minimal promoter [1]; clone 1.17, 600 nM for 13 hr, then 7 days in culture, DMSO-treated samples",Complete reversion
same,reversibility of induction of BlaM transcription,"p21 minimal promoter [1]; clone 1.17, 300 or 600 nM for 13 hours, 48 hours after removal",complete shut down of β-lactamase activity
same,EC50,"p21 minimal promoter [1]; clone 1.17, about 13 hours treatment, means of 3 to 4 independent experiments, read-out: p21m-Bla EC50",0.09 µM
same,EC50,[2],0.13 µM
same,% Blue cells,"p21 minimal promoter [3]; Table 1, 400 nM, 12 hours induction, 1 μg p21m-BLA + 3 μL F",1%
same,% Blue cells,"p21 minimal promoter [3]; Table 1, 400 nM, 12 hours induction, 1 μg p21m-BLA + 5 μL F",<1%
same,% Blue cells,"p21 minimal promoter [3]; Table 1, 400 nM, 12 hours induction, 2 μg p21m-BLA + 6 μL F",1%
same,% Blue cells,"p21 minimal promoter [3]; Table 1, 400 nM, 12 hours induction, 2 μg p21m-BLA + 10 μL F",<1%
same,% Blue cells,"p21 minimal promoter [3]; Table 2, 400 nM, 12 hours induction, 1 μg p21m-BLA + 3 μL F",5%
same,% Blue cells,"p21 minimal promoter [3]; Table 2, 400 nM, 12 hours induction, 2 μg p21m-BLA + 6 μL F",5%
same,% Blue cells,"p21 minimal promoter [3]; Table 2, 400 nM, 12 hours, 1 μg p21m-BLA + 3 μL F + CMV-luc",4%
same,% Blue cells,"p21 minimal promoter [3]; Table 2, 400 nM, 12 hours, 1 μg p21m-BLA + 3 μL F + RSV-luc",5%
same,% Blue cells,"p21 minimal promoter [3]; Table 2, 400 nM, 12 hours, 2 μg p21BLA + 6 μL F + CMV-luc",4%
same,% Blue cells,"p21 minimal promoter [3]; Table 2, 400 nM, 12 hours, 2 μg p21m-BLA + 6 μL F + RSV-luc",4%
same,% Blue cells,"p21 minimal promoter [3]; Table 3, 2 μg p21m-BLA + 0.1 μg pCMV-Luc, 6 hr treatment, TSA 300 nM, Apicidin 1 μM",2-3%
same,% Blue cells,"p21 minimal promoter [3]; Table 3, 2 μg p21m-BLA + 0.1 μg pCMV-Luc, 12 hr treatment, TSA 300 nM, Apicidin 1 μM",10%
same,% Blue cells,"p21 minimal promoter [3]; Table 3, 2 μg p21m-BLA + 0.1 μg pCMV-Luc, 24 hr treatment, TSA 300 nM, Apicidin 1 μM",10%
same,cells dead after treatment,"HeLa cells; 400 nM, 12 hours induction, transfected HeLa cells, both experiments",approximately 50%
same,"cell death at longer incubation times, compared with Apicidin","HeLa cells; 12 and 24 hours, TSA 300 nM vs Apicidin 1 μM",higher fraction of cells died
same,Cell-death,"HeLa cells; after 6 hours, TSA 300 nM, Apicidin 1 μM, transfected HeLa cells",not visible
same,induction of SEAP (maximum),p21 minimal promoter [4]; p21m-SEAP promoter titration in HeLa,up to 26 fold
same,SEAP (10 min),p21 minimal promoter [4]; P21m-SEAP 0 μg DNA (total DNA 2.1 μg),2313
same,SEAP norm-bckg/RLU norm,p21 minimal promoter [4]; P21m-SEAP 0.1 μg DNA,"6,558.72"
same,SEAP (10 min),p21 minimal promoter [4]; P21m-SEAP 0.1 μg DNA (total DNA 2.1 μg),4405
same,SEAP norm-bckg/RLU norm,p21 minimal promoter [4]; P21m-SEAP 0.2 μg DNA,"11,855.92"
same,SEAP (10 min),p21 minimal promoter [4]; P21m-SEAP 0.2 μg DNA (total DNA 2.1 μg),9328
same,SEAP norm-bckg/RLU norm,p21 minimal promoter [4]; P21m-SEAP 0.5 μg DNA,"25,471.82"
same,SEAP (10 min),p21 minimal promoter [4]; P21m-SEAP 0.5 μg DNA (total DNA 2.1 μg),15743
same,SEAP norm-bckg/RLU norm,p21 minimal promoter [4]; P21m-SEAP 1 μg DNA,"108,713.07"
same,SEAP (10 min),p21 minimal promoter [4]; P21m-SEAP 1 μg DNA (total DNA 2.1 μg),50626
same,SEAP norm-bckg/RLU norm,p21 minimal promoter [4]; P21m-SEAP 2 μg DNA,"201,678.57"
same,SEAP (10 min),p21 minimal promoter [4]; P21m-SEAP 2 μg DNA (total DNA 2.1 μg),109998
